Data: US20090036437A1, “PHARMACEUTICAL COMPOSITION COMPRISING PHENOXAZINIUM COMPOUND AS AN ACTIVE INGREDIENT” (priority 2005, published 2009)
Read-outs that look alike come from different tables or passages of the source.

Key:
[1] = test system: Trypanosoma cruzi (Tulahuen C2C4 strain); assay: in vitro growth-inhibiting screening assay, protozoa of American trypanosomiasis; assay type: cell-based; settings: for EC50: in infected rat L6 cells, 96 h, CPRG/Nonidet, read-out: 50% growth-inhibiting concentration (nM) Trypanosoma cruzi
Experimental: The test was done using a trypomastigote and an amastigote of the protozoa of Trypanosoma cruzi (Tulahuen C2C4 strain) present in the infected rat L6 cells. The L6 cells were cultured in RPMI-1640 medium supplemented with 1% of […] (200 mM) and 10% of fetal calf serum under CO2 concentration of 5%, at 37° C.
A test sample was prepared by dissolving the test compounds according to the present invention and a positive control drug (benznidazole) in DMSO to a predetermined concentration. Culture medium containing the protozoa of 5×10^3 was added into each well of 96-well culture plate and cultured for 48 hours. After the medium was exchanged, the test sample comprising the predetermined amount of the test compound, and DMSO without the test compound were added into each well in duplicate.
After incubation of the culture plate for 96 hours in an incubator, a growth-inhibiting activity was assayed as follows. CPRG/Nonidet (50 μL) was added to each well followed by a further 2˜6-hour culture. The culture plate was then attached to an absorption micro titer plate reader, the absorbance at 540 nm was detected to calculate an infection ratio of the protozoa with respect to a group treated with the test sample and a control group. A growth-inhibiting ratio was then calculated from the resulting infection ratio in accordance with the following equation to determine 50% growth-inhibiting concentration (EC50).
Growth-inhibiting ratio (%)=[1−(b−a)/(c−a)]×100 • a: Initial infection ratio; • b: Infection ratio of the test sample group; and • c: Infection ratio of the control group.
A selective toxicity coefficient, which is used as an index for the selective toxicity for the protozoa of American trypanosomiasis, was calculated by the following equation, and the pharmaceutical effect was determined.
A selective toxicity coefficient=(EC50 value of the test sample for rat L6 cell)/(EC50 value of the test sample for the protozoa of American trypanosomiasis).

[2] = test system: Plasmodium Falciparum K1 strain; assay: in vitro growth-inhibiting screening assay, chloroquine-resistant falciparum malaria; assay type: cell-based; settings: for EC50: chloroquine-resistant strain, 72 h culture, 3H-hypoxanthine, read-out: 50% growth-inhibiting concentration (nM) P. falciparum K1
Experimental: Plasmodium Falciparum K1 strain was used as a chloroquine-resistant protozoa of falciparum malaria. RMI-1640 sterilized by filtration was supplemented with human serum of a final concentration of 5% to be used as a culture medium. The malaria protozoa were cultured under O2 concentration of 3%, CO2 concentration of 4%, N2 concentration of 93% at 37° C.
A test sample was prepared by dissolving the test compounds according to the present invention and a positive control drug (chloroquine) in DMSO to a predetermined concentration. The erythrocytes infected with the cultured malaria protozoa were collected by centrifugation and so diluted with non-infected erythrocytes to have an initial infection ratio of 0.15%. The hematocrit value was then 2.5%. Culture mixture of the above malaria-infection culture medium (200 μL) was placed into each well of a 96-well culture plate, and the test sample comprising the predetermined amount of the test compound, and DMSO without the test compound were added to the wells in duplicate.
After culture for 48 hours at 37° C., hypoxanthine labeled with radioactive tritium (^3H) of 0.5 μCi was added to each well. After the culture in the same conditions for further 24 hours, the sample was taken on a glass fiber filter and washed with distilled water. Intensity of radiation was measured by means of plate liquid scintillation counter (Wallac Co.), and an infection ratio of the protozoa of malaria was calculated with respect to a group treated with the test sample and the control. A growth-inhibiting ratio was then calculated from the resulting infection ratio in accordance with the following equation to determine 50% growth-inhibiting concentration (EC50).
Growth-inhibiting ratio (%)=[1−(b−a)/(c−a)]×100 • a: Initial infection ratio; • b: Infection ratio of the test sample group; and • c: Infection ratio of the control group. In vitro Growth-Inhibiting Assay of Rat L6 Cells
Anti-malaria effect of the samples was assessed by their EC50 values for the chloroquine-resistant protozoa of falciparum malaria and the rat L6 cell. A chemotherapy coefficient, which is used as an index for the selective toxicity for the chloroquine-resistant protozoa of falciparum malaria was calculated by the following equation, and the pharmaceutical effect was determined.
Chemotherapy coefficient=(EC50 value of the test sample for rat L6 cell)/(EC50 value of the test sample for the chloroquine-resistant protozoa of falciparum malaria)

[3] = test system: Plasmodium berghei NK65 strain; assay: in vivo 4-day suppressive test, intraperitoneal administration, mouse infected with malaria; settings: 4 days
Experimental: This test was carried out in accordance with 4-day suppressive test that is a general in vivo test for the activity of an anti-malaria compound. Rodent malaria protozoa (Plasmodium berghei NK65 strain) were used in this test. Infected blood was prepared by infection with intraperitoneal administration into ICR male mouse (5 weeks age; SPF) and passage culture (subculture) thereafter. Blood was drawn from the vein of a tail of the moue infected with malaria, and its infection ratio was determined. After it was confirmed that the infection ratio had been increased up to an appropriated level (10˜20%), the blood infected with malaria was drawn from the heart of the mouse. The infection ratio and number (cells/mL) of erythrocytes were determined. An uninfected mouse (ICR male, 5 weeks age) was then infected with an injection of the infected erythrocytes so diluted with PBS as to comprise the protozoa of […] per dose (0.2 mL) into the vein of its tail.
A test sample was prepared by dissolving the test compounds according to the present invention into physiologic saline (Otsuka Pharmaceuticals Industries) to a predetermined concentration. In the case where the compound was insoluble in water, it was dissolved into DMSO or Tween 20 to prepare the test sample. A control group (no drug-administration group) was treated only with physiologic saline. […]
One group consisted of five mice. The intraperitoneal administration of the test sample started after two hours from the infection with malaria and continued for successive 4 days with a 24-hour interval. After 24 hours from the last administration, blood was drawn from the tail of the infected mouse to prepare a thin-layer smear, and the number of the erythrocytes infected with the malaria protozoa under a microscope with respect to the control group and the test sample groups. Parasitemia, i.e., the infection ratio with the malaria protozoa, was obtained by calculating an average value of the medium three mice except the two mice showing a maximum or minimum inhibition level. A cure rate (suppression) was then calculated from the resulting parasitemia in accordance with the following equation.
Cure rate: suppression (%)=(b−a)/b×100 • a: Infection ratio of the test sample group; and • b: Infection ratio of the control group.

[4] = Table 5, 2.5 mg/kg/day intraperitoneal
[5] = Table 5, 5.0 mg/kg/day intraperitoneal
[6] = Table 5, 10 mg/kg/day intraperitoneal
[7] = Table 5, 20 mg/kg/day intraperitoneal

Row | SMILES | EC50 [1] | EC50 [2] | Parasitaemia suppression (%) ([3]; 5 mg/kg/day intraperitoneal) | Parasitaemia suppression (%) [3, 4] | Parasitaemia suppression (%) [3, 5] | Parasitaemia suppression (%) [3, 6] | Parasitaemia suppression (%) [3, 7] | Selective toxicity ([1]; EC50 rat L6 cell / EC50 protozoa of American trypanosomiasis) | EC50 ([1]; Trypanosoma cruzi, TULAHUEN) | Selective toxicity ([2]; EC50 rat L6 cell / EC50 P. falciparum K1) | EC50 ([2]; Plasmodium falciparum, K1)
1 | CCN(CC)c1ccc2nc3ccc(=[N+](CC)CC)cc-3oc2c1.[Cl-] [A-1 (>95% purity)] | 15 nM | 2.1 nM | 79.2% | – | – | – | – | – | – | – | –
2 | CCCC[N+](CCCC)=c1ccc2nc3ccc(N(CC)CC)cc3oc-2c1.[Cl-] [Compound A-6] | 24 nM | 2.4 nM | 83.1% | – | – | – | – | – | – | – | –
3 | CCCC[N+](CCCC)=c1ccc2nc3ccc(N(C)C)cc3oc-2c1.[O-][Cl+3]([O-])([O-])[O-] [Compound A-7] | 22 nM | 1.5 nM | 90.3% | – | – | – | – | – | – | – | –
4 | CCN(CC)c1ccc2nc3ccc(=[N+](CC)CC)cc-3oc2c1.[Cl-] [A-1 (60% purity)] | 149 nM | 4.6 nM | 46.3% | 30.5% | 46.3% | 82.4% | 95.8% | – | – | – | –
5 | CC[N+](CC)=c1ccc2nc3ccc(N(C)C)cc3oc-2c1 [Compound A-4] | – | – | 85.3% | 58.7% | 85.3% | 99.9% | >99.99% | 22 | 211 nM | 1200 | 2.1 nM
6 | CN(C)c1ccc2nc3ccc(=[N+](C)C)cc-3oc2c1.CN(C)c1ccc2nc3ccc(=[N+](C)C)cc-3oc2c1.[Cl-].[Cl-].[Cl][Zn][Cl] [Compound A-3] | 457 nM | 15.6 nM | 17.1% | – | – | – | – | – | – | – | –
